Data on 4 molecules can be found in patent US20230416207A1, “CRYSTALLINE FORMS OF QUINAZOLINONE COMPOUND AND PROCESS FOR PREPARING THE SAME” (priority 2020, published 2023).

A word on the solubility: it is how much of the substance goes into solution per volume. Low readings indicate little dissolved substance, high ones much dissolved substance.

Common to all, as to assay type: physicochemical
Data set [1] in a line: Solubility of crystalline forms in simulated gastric fluid (SGF). From the text: (§1) The UPLC data of the present disclosure were collected on Waters H Class, with photo-diode array detector. The UPLC parameters for purity and solubility test of the present disclosure were as follows: • 1. Column: Waters Xbridge C18, 150×4.6 mm, 5 μm • 2. Mobile phase: A: 0.05% trifluoroacetic acid in water; B: 0.05% trifluoroacetic acid in acetonitrile
Suspend Forms D, AL, and Z of the present disclosure and Form B in the prior art in simulated gastric fluid (SGF) to form suspensions, respectively. After equilibrium for 1 hour, 2 hours and 4 hours, filter the suspensions to form saturated solutions. Determine the concentration of API in corresponding saturated solution by HPLC.

Data set [2] is described as follows: Crystal habit study (PLM). The settings on record: for Crystal habit (PLM): dispersed in vacuum pump oil; for Powder flow property: inferred from PLM crystal habit. The procedure: The polarized light microscope photos of the present disclosure were taken at room temperature with a Zeiss microscope Axio Scope.A1 equipped with an Axiocam 305 color camera and 5×, 10×, 20× and 50× objective lenses.
Weigh about 10 mg of Forms Z and AL of the present disclosure onto a glass slide, respectively. Disperse each solid with several vacuum pump oil, and then cover with a cover glass. Observe the sample using PLM.

Data set [3] in a line: Solubility of crystalline forms in fasted-state simulated intestinal fluid (FaSSIF).
Description: as §1
Suspend Forms D and Z of the present disclosure and Form B in the prior art in fasted-state simulated intestinal fluid (FaSSIF) to form suspensions, respectively. After equilibrium for 1 hour, 2 hours and 4 hours, filter the suspensions to form saturated solutions. Determine the concentration of API in corresponding saturated solution by HPLC.

Data set [4] can be described thus: Particle size distribution study (laser particle size analyzer). The settings on record: for D10 / D50 / D90 / MV: wet method, Isopar G (0.2% lecithin), sonication 30 s. The procedure:
The particle size distribution results of the present disclosure were collected on S3500-type laser particle size analyzer of the Microtrac company. The Microtrac S3500 was equipped with an SDC (Sample Delivery Controller) sampling system. The wet method was used in this test, using Isopar G (containing 0.2% lecithin) as the test dispersion medium. The process parameters of the laser particle size analyzer were as follows.
Approximately 10-30 mg of Form D of the present disclosure and Form B in the prior art were added into 5 mL Isopar G (0.2% lecithin) to form a suspension, respectively. The suspension was mixed well and then loaded into SDC loading system. Adjust the shading intensity to an appropriate range, and then started to collect data after sonication for 30 s. The results were summarized in Table 20, and the particle size distribution diagrams of Form D and Form B were shown in FIGS. 35 to 36, respectively.

Data set [5] is described as follows: Hygroscopicity study (DVS). As to conditions: for Water uptake at 80% RH: 25° C.; for Hygroscopicity: class per Chinese Pharmacopoeia 2010. On the procedure: The dynamic vapor sorption diagrams of the present disclosure were collected on Intrinsic-type and Intrinsic Plus-type dynamic vapor sorption instruments of SMS company. The process parameters of the dynamic vapor sorption test of the present disclosure were as follows: • Temperature: 25° C. • Protection gas and its flow rate: N2, 200 mL/minute • dm/dt: 0.002%/minute • Minimum dm/dt equilibration time: 10 minutes • Maximum Equilibration Time: 180 minutes • Relative humidity range: 0% RH-95% RH-0% RH • Relative humidity gradient: 10% (0% RH-90% RH-0% RH), 5% (90% RH-95% RH and 95% RH-90% RH).
Weigh approximately 10 mg of Form Z of the present disclosure and Form B in the prior art for DVS test, and then collect the obtained solid for XRPD analysis. The results were summarized in Table 19, DVS plot of Form B was shown in FIG. 29, XRPD overlay of Form B was shown in FIG. 30, DVS plot of Form Z was shown in FIG. 31, and XRPD overlay of Form Z was shown in FIG. 32.
Description and definition of hygroscopicity (see appendix XIX J, guidance for hygroscopicity evaluation of Pharmacopoeia of the People's Republic of China 2010) • Deliquescent: sufficient water is absorbed to form a liquid, • Very hygroscopic: increase in mass is equal to or greater than 15 percent, • Hygroscopic: increase in mass is less than 15 percent and equal to or greater than 2 percent, • Slightly hygroscopic: increase in mass is less than 2 percent and equal to or greater than 0.2 percent. • Non-hygroscopic: increase in mass is less than 0.2 percent.

Structures are written as SMILES. ≈ marks a conversion by molar mass, not a printed value.

In the case of `CC(C)c1nc2cc(O)ccc2c(=O)n1-c1ccc(C#N)cc1` [Form AL, 4-(7-hydroxy-4-oxo-2-propan-2-ylquinazolin-3-yl) benzonitrile], in data set [1], the “Solubility compared with Form B” value is listed as “better solubility than Form B”. The “Solubility in SGF” value in data set [1] (equilibrium 1 hr) is 77.4 µg/mL (≈ 253 µM); in data set [1] (equilibrium 2 hr), 78.8 µg/mL (≈ 258 µM); in data set [1] (equilibrium 4 hr), 79.5 µg/mL (≈ 260 µM). In addition, the “Crystal habit (PLM)” value in data set [2] is recorded as “regular particles”. The Powder flow property result in data set [2] was “relatively good property on powder flow”.

Take `CC(C)c1nc2cc(O)ccc2c(=O)n1-c1ccc(C#N)cc1` [Form D, 4-(7-hydroxy-4-oxo-2-propan-2-ylquinazolin-3-yl) benzonitrile]: the “Solubility compared with Form B” value in data set [1] is given as “better solubility than Form B”. For the same molecule, the “Solubility in SGF” value in data set [1] (equilibrium 1 hr) is 98.7 µg/mL (≈ 323 µM). The “Solubility in SGF” value in data set [1] (equilibrium 2 hr) was 95.4 µg/mL (≈ 312 µM). In data set [1] (equilibrium 4 hr), the “Solubility in SGF” value is 103.3 µg/mL (≈ 338 µM). The “Solubility compared with Form B” value in data set [3] is recorded as “better solubility than Form B”. The “Solubility in FaSSIF” value in data set [3] (equilibrium 2 hr) is 88.3 µg/mL (≈ 289 µM). Also, the “Solubility in FaSSIF” value in data set [3] (equilibrium 4 hr) was 87.1 µg/mL (≈ 285 µM). Moreover, in data set [4], the “Uniformity of particle size distribution compared with Form B” value is “more uniform particle size distribution than Form B”, the D10 is recorded as 53.9 μm, the D50 is 117.2 μm and the D90 came to 175.9 μm. Moreover, in data set [4], the MV is listed as 116.2 μm.

Turning to `CC(C)c1nc2cc(O)ccc2c(=O)n1-c1ccc(C#N)cc1` [Form Z, 4-(7-hydroxy-4-oxo-2-propan-2-ylquinazolin-3-yl) benzonitrile], the “Solubility compared with Form B” value in data set [1] and in data set [3] was “better solubility than Form B” each time. Further, the “Solubility in SGF” value in data set [1] (equilibrium 1 hr) was 79.6 µg/mL (≈ 261 µM); in data set [1] (equilibrium 2 hr), 90.7 µg/mL (≈ 297 µM); in data set [1] (equilibrium 4 hr) it was 86.7 µg/mL (≈ 284 µM). Moreover, the “Solubility in FaSSIF” value was 31.4 µg/mL (≈ 103 µM) in data set [3] (equilibrium 1 hr) and 42.7 µg/mL (≈ 140 µM) in data set [3] (equilibrium 2 hr). For the same molecule, the concentration in solution in data set [3] (fasted-state simulated intestinal fluid (FaSSIF), thermodynamic from solid, equilibrium 4 hr) (solubility at 4 h) was 56.1 µg/mL (≈ 184 µM). Also, the “Hygroscopicity compared with Form B” value in data set [5] is listed as “relatively lower hygroscopicity than Form B”. In addition, in data set [5], the “Water uptake at 80% RH” value worked out at 0.0303. The Hygroscopicity result in data set [5] was “Non-hygroscopic (increase in mass is less than 0.2 percent)”. Also, the “Crystal habit (PLM)” value in data set [2] is “regular particles”. Moreover, the Powder flow property entry in data set [2] is reported as “relatively good property on powder flow”.

On to `CC(C)c1nc2cc(O)ccc2c(=O)n1-c1ccc(C#N)cc1` [Form B, 4-(7-hydroxy-4-oxo-2-propan-2-ylquinazolin-3-yl) benzonitrile, reference compound], for which the “Solubility in SGF” value in data set [1] (equilibrium 1 hr) is 77.5 µg/mL (≈ 254 µM). Moreover, the solubility at 2 h in data set [1] (simulated gastric fluid (SGF), simulated gastric fluid, thermodynamic from solid, equilibrium 2 hr) is 75.2 µg/mL (≈ 246 µM). Besides, in data set [1] (simulated gastric fluid (SGF), simulated gastric fluid, thermodynamic from solid, equilibrium 4 hr), the solubility at 4 h is 73.6 µg/mL (≈ 241 µM). Also, the “Solubility in FaSSIF” value in data set [3] (equilibrium 1 hr) was 33.3 µg/mL (≈ 109 µM). Moreover, the “Solubility in FaSSIF” value in data set [3] (equilibrium 2 hr) is 34.8 µg/mL (≈ 114 µM). Besides, in data set [3] (equilibrium 4 hr), the “Solubility in FaSSIF” value was 35.9 µg/mL (≈ 118 µM). In data set [5], the “Water uptake at 80% RH” value is listed as 0.2485; the Hygroscopicity result is “Slightly hygroscopic (increase in mass is less than 2 percent and equal to or greater than 0.2 percent)”. For the same molecule, in data set [4], the D10 is listed as 62.3 μm, the D50 is 1085.0 μm, the D90 worked out at 1331.0 μm and the MV is 795.2 μm.
